For one assay, the target named is human CB2 receptors (Homo sapiens (Human), UniProt P34972). As to the kind of experiment: cAMP assay, CHO cells expressing human CB2 receptors. It counts as cell-based. Conditions: CHO cells expressing human CB2, cAMP; read-out: human CB2 EC50. A digest of the protocol: (§1)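 Read-out is TR-FRET (excitation 355 nm, emission 730/645 nm) after cell lysis, with cAMP content taken from a standard curve and EC50 calculated. Cells were pretreated with 1 mM IBMX in Krebs Ringer bicarbonate buffer, then incubated with compounds for 30 min at 30 °C.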

A further assay has as its target human CB1 receptors (Homo sapiens (Human), UniProt P21554). Kind of assay: cAMP assay, CHO cells expressing human CB1 receptors. It counts as cell-based. The note with it: CHO cells expressing human CB1, cAMP; read-out: human CB1 EC50. Summed up: as §1

Where only a bound is given, the exact number is not on record here.

Sequence of human CB2 receptors (P34972 whole entry): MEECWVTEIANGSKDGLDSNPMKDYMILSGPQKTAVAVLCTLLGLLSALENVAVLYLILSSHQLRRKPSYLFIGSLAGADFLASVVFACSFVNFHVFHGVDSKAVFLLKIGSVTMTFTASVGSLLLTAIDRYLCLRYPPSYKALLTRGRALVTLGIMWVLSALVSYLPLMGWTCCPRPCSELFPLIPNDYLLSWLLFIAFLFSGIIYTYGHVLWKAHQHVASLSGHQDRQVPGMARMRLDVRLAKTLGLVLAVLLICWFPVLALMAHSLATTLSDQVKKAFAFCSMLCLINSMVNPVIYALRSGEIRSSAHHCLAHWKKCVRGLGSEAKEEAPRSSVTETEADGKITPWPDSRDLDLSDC
Sequence of human CB1 receptors (P21554 whole entry): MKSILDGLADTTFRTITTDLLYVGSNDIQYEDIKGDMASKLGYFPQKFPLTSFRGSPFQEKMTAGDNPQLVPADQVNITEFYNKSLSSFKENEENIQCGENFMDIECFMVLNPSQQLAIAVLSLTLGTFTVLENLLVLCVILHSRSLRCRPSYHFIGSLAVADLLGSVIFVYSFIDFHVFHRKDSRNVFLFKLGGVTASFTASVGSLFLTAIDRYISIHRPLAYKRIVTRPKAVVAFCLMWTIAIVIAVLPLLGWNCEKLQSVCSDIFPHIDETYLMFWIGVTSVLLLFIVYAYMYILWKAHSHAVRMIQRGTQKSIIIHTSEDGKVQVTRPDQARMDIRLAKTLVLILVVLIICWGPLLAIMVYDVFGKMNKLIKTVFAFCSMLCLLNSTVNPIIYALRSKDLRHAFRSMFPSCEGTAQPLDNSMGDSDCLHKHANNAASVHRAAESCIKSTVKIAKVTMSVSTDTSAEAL

In the case of `CCOC(=O)C(CC)(CC)NC(=O)c1ccc(C(F)(F)F)c(OCC2CCCO2)n1` (stereo not shown) [Example 254, 2-Ethyl-2-{[6-(tetrahydro-furan-2-ylmethoxy)-5-trifluoromethyl-pyridine-2-carbonyl]-amino}-butyric acid ethyl ester], the EC50 on human CB2 receptors amounted to 2.3 nM; at human CB1 receptors, 518 nM.
Regarding `CN(C)C(=O)C(NC(=O)c1ccc(N2CC(F)(F)C2)c(OCC2CC2)n1)c1ccccc1` (stereo not shown) [Example 255, 6-Cyclopropylmethoxy-5-(3,3-difluoro-azetidin-1-yl)-pyridine-2-carboxylic acid (dimethylcarbamoyl-phenyl-methyl)-amide], the EC50 at human CB2 receptors is 61.3 nM; on human CB1 receptors it was more than 10000 nM.
As to `CN(C)C(=O)[C@H](CC1CC1)NC(=O)c1ccc(N2CC(F)(F)C2)c(OCC2CC2)n1` [Example 256, 6-Cyclopropylmethoxy-5-(3,3-difluoro-azetidin-1-yl)-pyridine-2-carboxylic acid ((S)-2-cyclopropyl-1-dimethylcarbamoyl-ethyl)-amide], the EC50 is 9.3 nM at human CB2 receptors and more than 10000 nM on human CB1 receptors.
Turning to `CCOC(=O)C(CC)(CC)NC(=O)c1ccc(C2CC2)c(OCC2CC2)n1` [Example 257, 2-[(5-Cyclopropyl-6-cyclopropylmethoxy-pyridine-2-carbonyl)-amino]-2-ethyl-butyric acid ethyl ester], the EC50 on human CB2 receptors was found to be 2.3 nM; on human CB1 receptors it was 347 nM.
For `COC(=O)[C@H](CC1CC1)NC(=O)c1ccc(C2CC2)c(OCC2CC2)n1` [Example 258, (S)-3-Cyclopropyl-2-[(5-cyclopropyl-6-cyclopropylmethoxy-pyridine-2-carbonyl)-amino]-propionic acid methyl ester] the same measures were 7.1 nM and more than 10000 nM.
Take `CCC(CC)(NC(=O)c1ccc(C(F)(F)F)c(OCC2CC2)n1)C(=O)NC` [Example 259, 6-Cyclopropylmethoxy-5-trifluoromethyl-pyridine-2-carboxylic acid (1-ethyl-1-methylcarbamoyl-propyl)-amide]: the EC50 at human CB2 receptors is 5.1 nM; at human CB1 receptors, more than 10000 nM.
For the molecule `Cc1nc([C@@H](NC(=O)c2cccc(-c3ccc(F)c(Cl)c3)n2)C2CC2)no1` [Example 260, 6-(3-Chloro-4-fluoro-phenyl)-pyridine-2-carboxylic acid [(−)-cyclopropyl-(5-methyl-[1,2,4]oxadiazol-3-yl)-methyl]-amide], the EC50 was 24.9 nM at human CB2 receptors and more than 10000 nM on human CB1 receptors.
`Cc1nc([C@H](NC(=O)c2cccc(-c3ccc(F)c(Cl)c3)n2)C2CC2)no1` [Example 261, 6-(3-Chloro-4-fluoro-phenyl)-pyridine-2-carboxylic acid [(+)-cyclopropyl-(5-methyl-[1,2,4]oxadiazol-3-yl)-methyl]-amide]: the EC50 on human CB2 receptors stood at 10.1 nM; on human CB1 receptors, 260 nM.
`CCC(CC)(NC(=O)c1ccc(C(F)(F)F)c(OCC2CCOCC2)n1)C(=O)N(C)C` [Example 262, 6-(Tetrahydro-pyran-4-ylmethoxy)-5-trifluoromethyl-pyridine-2-carboxylic acid (1-dimethylcarbamoyl-1-ethyl-propyl)-amide]: the EC50 on human CB2 receptors is 74.8 nM; on human CB1 receptors, more than 10000 nM.
For `CCOC(=O)C(CC)(CC)NC(=O)c1ccc(N2CCC23COC3)c(OCC2CC2)n1` [Example 263, 2-{[6-Cyclopropylmethoxy-5-(6-oxa-1-aza-spiro[3.3]hept-1-yl)-pyridine-2-carbonyl]-amino}-2-ethyl-butyric acid ethyl ester], the EC50 was 4.5 nM at human CB2 receptors and more than 10000 nM at human CB1 receptors.
As to `CCC(CC)(NC(=O)c1ccc(C(F)(F)F)c(OCC2CCCO2)n1)C(=O)N(C)C` (stereo not shown) [Example 264, 6-(Tetrahydro-furan-2-ylmethoxy)-5-trifluoromethyl-pyridine-2-carboxylic acid (1-dimethylcarbamoyl-1-ethyl-propyl)-amide], the EC50 at human CB2 receptors is 2.7 nM; on human CB1 receptors, 602 nM.

The record behind these values is patent US9290451B2 (Hoffmann-La Roche Inc., priority 2011, dated 2016).
